Assays:
[1] = tested on: tumor necrosis factor α (TNF-α); conditions: human mononuclear cells stimulated with lipopolysaccharide; cited from earlier work
IL-10 / IL-12 balance = conditions: in vitro; cited from earlier work
IL-1 = conditions: human mononuclear cells stimulated with lipopolysaccharide; cited from earlier work
interferon-γ (INF-γ) = conditions: bronchoalveolar lavage cells and peripheral blood mononuclear cells stimulated with phythemagglutine; cited from earlier work
[2] = tested on: patients suffering from oro-pharyngeal catarrh accompanied by pain (sore throat); assay: Example 1: placebo-controlled double-blind trial, two days of treatment with ambroxol lozenges; type: in vivo, human; conditions: up to six lozenges containing 20 mg ambroxol hydrochloride per day, vs placebo
Source text: The activity of ambroxol according to the invention is intended to be illustrated by the following three examples of clinical trials which investigate: 1) the […] of ambroxol lozenges by measurement of the redness symptom and 2) the efficacy and tolerability of ambroxol lozenges relative to placebo in relieving the symptoms of sore throat of at least moderately severe intensity in patients suffering from oro-pharyngeal catarrh accompanied by pain.
The first study was a multi-centre, prospective, placebo-controlled, randomized, double-blind trial involving two days of treatment with up to six lozenges containing 20 mg ambroxol hydrochloride per day.
109 patients were treated with ambroxol and 109 patients with placebo.

interleukin-2 (IL-2) = conditions: bronchoalveolar lavage cells and peripheral blood mononuclear cells stimulated with phythemagglutine; cited from earlier work
TNF = conditions: in vitro; cited from earlier work

| SMILES | production of tumor necrosis factor α (TNF-α) [1] | inflammatory responses, local balance of IL-10 and IL-12 (IL-10 / IL-12 balance) | production of IL-1 (IL-1) | secretion of interferon-γ (INF-γ) (interferon-γ (INF-γ)) | pain (primary endpoint) [2] | secretion of interleukin-2 (IL-2) (interleukin-2 (IL-2)) | release of inflammatory TNF (TNF) |
| --- | --- | --- | --- | --- | --- | --- | --- |
| Nc1c(Br)cc(Br)cc1CN[C@H]1CC[C@H](O)CC1 [ambroxol, trans-4-(2-amino-3,5-dibromobenzylamino)-cyclohexanole] | inhibit the production | enhance inflammatory responses | inhibit the production | decrease the secretion | reduced statistically significantly | decrease the secretion |  |
| CC(C(=O)O)c1cccc(C(=O)c2ccccc2)c1 (stereo not shown) [ketoprofen] |  |  |  |  |  |  | induce the release |
